Results published in PubChem BioAssay (NCI).
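Interpolation was linear, between the two tested concentrations surrounding the appropriate level; five concentrations were tested over 48 hours in 96-well plates. The concentration for 50% growth inhibition is given as GI50. TGI marks complete inhibition of growth.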

Assays:
Test in all cases: NCI anticancer screen, dose series, 48 h
SK-MEL-2 melanoma = test system: SK-MEL-2 melanoma
U251 CNS = test system: U251 CNS
HOP-92 NSCLC = test system: HOP-92 NSCLC
UO-31 renal = test system: UO-31 renal
HCT-116 colon = test system: HCT-116 colon
SF-539 CNS = test system: SF-539 CNS
OVCAR-5 ovarian = test system: OVCAR-5 ovarian
MALME-3M melanoma = test system: MALME-3M melanoma
NCI-H23 lung = test system: NCI-H23 lung

Row | SMILES | TGI (SK-MEL-2 melanoma) [µM] | TGI (U251 CNS) [µM] | TGI (HOP-92 NSCLC) [µM] | TGI (UO-31 renal) [µM] | TGI (HCT-116 colon) [µM] | TGI (SF-539 CNS) [µM] | TGI (OVCAR-5 ovarian) [µM] | TGI (MALME-3M melanoma) [µM] | TGI (NCI-H23 lung) [µM] | GI50 (U251 CNS) [µM] | GI50 (HCT-116 colon) [µM] | GI50 (SK-MEL-2 melanoma) [µM] | GI50 (HOP-92 NSCLC) [µM] | GI50 (UO-31 renal) [µM] | GI50 (SF-539 CNS) [µM] | GI50 (OVCAR-5 ovarian) [µM] | GI50 (MALME-3M melanoma) [µM] | GI50 (NCI-H23 lung) [µM]
1 | COc1ccc(-c2oc3c(OC)c(OC)c(OC)c(O)c3c(=O)c2OC)cc1OC | 66.2 | > 100 | 18.4 | > 78.7 | > 100 | > 71.4 | > 100 | 97.1 | > 83.8 | – | – | – | – | – | – | – | – | –
2 | COc1ccc(-c2cc(=O)c3c(C)cc(C)nc3[nH]2)cc1 | > 100 | > 100 | > 100 | > 100 | > 100 | > 100 | > 100 | 88 | > 100 | 90.7 | 36.5 | – | – | – | – | – | – | –
3 | O=C1C(c2c[nH]c3ccccc23)=C(c2c[nH]c3ccccc23)C(=O)N1O | > 25 | > 25 | 21.7 | > 25 | > 25 | > 25 | > 25 | > 25 | > 25 | > 25 | > 25 | > 25 | 2.89 | 5.78 | > 25 | > 25 | > 25 | > 25
4 | O=CC(O)C(O)C(O)C(O)C(=O)NCCCCCCCCCCCCNC(=O)C(O)C(O)C(O)C(O)C=O (centres undefined) | > 100 | > 100 | > 100 | > 100 | > 100 | > 100 | > 100 | > 100 | > 100 | – | – | – | – | – | – | – | – | –
5 | O=[N+]([O-])c1c(Br)cc(Br)c2c1Nc1c(ccc(Cl)c1Cl)S2 | 39.2 | 35.1 | 34.3 | 20.5 | 19.1 | 41.2 | 33.7 | 27.7 | 29.6 | – | – | – | – | – | – | – | – | –
6 | Oc1ccc(C(c2ccc(O)cc2)c2ccc(Cl)cn2)cc1 | 60.3 | > 100 | 0.947 | > 100 | > 100 | > 100 | > 100 | > 100 | 0.983 | 42.3 | 0.473 | 4.31 | 0.266 | 2.04 | 13.7 | 17.6 | 24.6 | 0.0959
7 | CC(=O)/C(=C/n1c(=S)[nH]c2ccccc21)C(=O)Nc1ccccc1C | > 100 | > 100 | > 100 | > 100 | > 100 | > 100 | > 100 | – | > 100 | – | – | – | – | – | – | – | – | –
8 | CCOC(=O)C1=C(C(=O)c2ccc(C)cc2)C(c2cccc([N+](=O)[O-])c2)C(C(=O)c2ccc(C)cc2)=C(C(=O)OCC)N1 | > 100 | 25.8 | – | 29.5 | 19.6 | 26.7 | 34.7 | 66.4 | 30.1 | – | – | – | – | – | – | – | – | –
9 | O=C(/C(=C\C(=O)c1cccs1)c1ccsc1)c1ccc(Br)cc1 | > 100 | > 100 | – | > 100 | > 100 | > 100 | – | > 100 | > 100 | – | – | – | – | – | – | – | – | –
10 | COc1cc(CCN)c2c(c1OC)SSSSS2 | 2.61 | 2.46 | 2.96 | 1.12 | – | 2.62 | 1.48 | 4.09 | 1.79 | 1.08 | 0.22 | 1.1 | 1.42 | 0.262 | 1.25 | 0.591 | 2.08 | 0.478
